Results taken from ChEMBL document CHEMBL1201862, “PubChem BioAssay data set” (2004).
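1) Cells in 96-well plates. 2) Compound, 48 h, 5 concentrations. 3) Linear interpolation between surrounding doses. 4) Unreached endpoint = highest concentration. Here, GI50 denotes the concentration required for 50% inhibition of growth.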 The source made the active and inactive calls. No stated cut-off is given here; in the data, active = GI50 up to about 1.1 µM and inactive = higher.

Legend:
Assay in all cases: DTP human tumour cell line panel, 48 h
PC-3 = system: PC-3
COLO 205 = system: COLO 205
BT-549 = system: BT-549
HCT-116 = system: HCT-116
HOP-62 = system: HOP-62
MDA-N = system: MDA-N
Malme-3M = system: Malme-3M
NCI-H226 = system: NCI-H226
CCRF-CEM = system: CCRF-CEM
OVCAR-4 = system: OVCAR-4
SK-MEL-2 = system: SK-MEL-2
OVCAR-8 = system: OVCAR-8
SF-268 = system: SF-268
HCC 2998 = system: HCC 2998
K562 = system: K562
MCF7 = system: MCF7
LOX IMVI = system: LOX IMVI
SNB-19 = system: SNB-19
EKVX = system: EKVX
NCI-H522 = system: NCI-H522

SMILES	GI50 (PC-3)	GI50 (COLO 205)	GI50 (BT-549)	GI50 (HCT-116)	GI50 (HOP-62)	GI50 (MDA-N)	GI50 (Malme-3M)	GI50 (NCI-H226)	GI50 (CCRF-CEM)	GI50 (OVCAR-4)	GI50 (SK-MEL-2)	GI50 (OVCAR-8)	GI50 (SF-268)	GI50 (HCC 2998)	GI50 (K562)	GI50 (MCF7)	GI50 (LOX IMVI)	GI50 (SNB-19)	GI50 (EKVX)	GI50 (NCI-H522)
Cc1cc(=O)oc2c(CN(CCCl)CCCl)c(O)ccc12	44 µM (inactive)	18 µM (inactive)	21.1 µM (inactive)	27.8 µM (inactive)	26.5 µM (inactive)	78.2 µM (inactive)	34.1 µM (inactive)	35.3 µM (inactive)	2.47 µM (inactive)	> 100 µM (inactive)	> 100 µM (inactive)	54.6 µM (inactive)	59.3 µM (inactive)	28.4 µM (inactive)	34.5 µM (inactive)	11.4 µM (inactive)	10.7 µM (inactive)	24.3 µM (inactive)	> 100 µM (inactive)	14.5 µM (inactive)
COc1cccc(C2c3cc4c(cc3OC(N3CCCC3)C2C)OCO4)c1O (stereo not given)	4.49 µM (inactive)	3.37 µM (inactive)	3.79 µM (inactive)	4.61 µM (inactive)	7.52 µM (inactive)	1.64 µM (inactive)	6.17 µM (inactive)	4.53 µM (inactive)	4.69 µM (inactive)	9.35 µM (inactive)	4.14 µM (inactive)	7.55 µM (inactive)	5.97 µM (inactive)	12.2 µM (inactive)	3.74 µM (inactive)	6.68 µM (inactive)	5.56 µM (inactive)	7.6 µM (inactive)	9.68 µM (inactive)	4.44 µM (inactive)
Cc1ccc(-c2ccc3c(c2)Sc2ccccc2O3)n1C	0.348 µM (active)	0.232 µM (active)	3.29 µM (inactive)	0.167 µM (active)	0.614 µM (active)	0.0285 µM (active)	0.0984 µM (active)	19.9 µM (inactive)	0.213 µM (active)	1.32 µM (inactive)	0.13 µM (active)	0.693 µM (active)	0.791 µM (active)	0.171 µM (active)	0.137 µM (active)	0.324 µM (active)	0.524 µM (active)	0.607 µM (active)	0.618 µM (active)	0.0564 µM (active)
COC(=O)c1ccc(NCc2cc(O)c3ccccc3c2O)cc1	17.2 µM (inactive)	5.06 µM (inactive)	16.6 µM (inactive)	15.7 µM (inactive)	14.4 µM (inactive)	2.15 µM (inactive)	2.56 µM (inactive)	16.4 µM (inactive)	2.86 µM (inactive)	12.4 µM (inactive)	18.2 µM (inactive)	24.4 µM (inactive)	22.4 µM (inactive)	21.9 µM (inactive)	2.59 µM (inactive)	3.68 µM (inactive)	3.48 µM (inactive)	22.2 µM (inactive)	18.3 µM (inactive)	16.1 µM (inactive)
C=CC(=O)c1ccc2c(c1)OCCOCCOCCOCCOCCO2	30.9 µM (inactive)	17.7 µM (inactive)	19.9 µM (inactive)	25.9 µM (inactive)	> 100 µM (inactive)	39.2 µM (inactive)	18.5 µM (inactive)	> 100 µM (inactive)	> 27.5 µM (inactive)	20.3 µM (inactive)	30.5 µM (inactive)	20 µM (inactive)	> 55.6 µM (inactive)	> 100 µM (inactive)	35.6 µM (inactive)	16 µM (inactive)	17.7 µM (inactive)	> 100 µM (inactive)	24 µM (inactive)	9.48 µM (inactive)
COc1ccc(Nc2nc(N)c(C(=O)c3ccccc3)s2)cc1	0.0396 µM (active)	0.0398 µM (active)	1.33 µM (inactive)	0.0267 µM (active)	16.7 µM (inactive)	< 0.01 µM (active)	45.2 µM (inactive)	0.0935 µM (active)	0.0226 µM (active)	2.44 µM (inactive)	0.054 µM (active)	0.139 µM (active)	0.839 µM (active)	0.227 µM (active)	0.0102 µM (active)	0.54 µM (active)	0.0524 µM (active)	0.037 µM (active)	0.142 µM (active)	0.0148 µM (active)
C=C(C)[C@@H]1CC[C@]2(C(=O)O)CC[C@]3(C)[C@H](CC[C@@H]4[C@@]5(C)CC[C@H](O)C(C)(C)[C@@H]5CC[C@]43C)[C@@H]12 [BETULINIC ACID]	7.48 µM (inactive)	4.63 µM (inactive)	2.53 µM (inactive)	4.27 µM (inactive)	8.36 µM (inactive)	16.7 µM (inactive)	7.59 µM (inactive)	13.2 µM (inactive)	5.15 µM (inactive)	5.83 µM (inactive)	12.4 µM (inactive)	4.85 µM (inactive)	7.6 µM (inactive)	6.31 µM (inactive)	5.13 µM (inactive)	13.7 µM (inactive)	11.3 µM (inactive)	13.7 µM (inactive)	16.1 µM (inactive)	3.21 µM (inactive)
